From PubChem BioAssay AID1963830 (Molecular Pharmacology Branch, DTP, NCI, 2024)

Tested on: 922993-354-T-J3-PDC complex spheroid viability
Assay: Anticancer human tumor 922993-354-T-J3-PDC patient-derived endometrial carcinoma cell line growth inhibition [POLQ]
Conditions: for IC50: curve of first compound; for viability, T/C: stronger effect = lower value
Procedure, shortened: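 Patient-derived tumour cells were co-cultured with HUVEC and mesenchymal stem cells as multicellular spheroids at 37 °C. They were treated with POLQ inhibitors (novobiocin, ART-558, RP6685) alone or combined with other agents. Top concentrations were at or near clinical Cmax (otherwise 10 microM; SN-38 at 1 microM), decreasing in half-log steps.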

[1] = second compound 0.0316 µM, first compound 0.0316 µM
[2] = second compound 0.0316 µM, first compound 0.1 µM
[3] = second compound 0.0316 µM, first compound 0.316 µM
[4] = second compound 0.0316 µM, first compound 1 µM
[5] = second compound 0.0316 µM, first compound 3.16 µM
[6] = second compound 0.0316 µM, first compound 10 µM
[7] = second compound 0.1 µM, first compound 0.0316 µM
[8] = second compound 0.1 µM, first compound 0.1 µM
[9] = second compound 0.1 µM, first compound 0.316 µM
[10] = second compound 0.1 µM, first compound 1 µM
[11] = second compound 0.1 µM, first compound 3.16 µM
[12] = second compound 0.1 µM, first compound 10 µM
[13] = second compound 0.316 µM, first compound 0.0316 µM
[14] = second compound 0.316 µM, first compound 0.1 µM
[15] = second compound 0.316 µM, first compound 0.316 µM
[16] = second compound 0.316 µM, first compound 1 µM
[17] = second compound 0.316 µM, first compound 3.16 µM
[18] = second compound 0.316 µM, first compound 10 µM
[19] = second compound 1 µM, first compound 0.0316 µM
[20] = second compound 1 µM, first compound 0.1 µM
[21] = second compound 1 µM, first compound 0.316 µM
[22] = second compound 1 µM, first compound 1 µM
[23] = second compound 1 µM, first compound 3.16 µM
[24] = second compound 1 µM, first compound 10 µM
[25] = second compound 3.16 µM, first compound 0.0316 µM
[26] = second compound 3.16 µM, first compound 0.1 µM
[27] = second compound 3.16 µM, first compound 0.316 µM
[28] = second compound 3.16 µM, first compound 1 µM
[29] = second compound 3.16 µM, first compound 3.16 µM
[30] = second compound 3.16 µM, first compound 10 µM
[31] = second compound 10 µM, first compound 0.0316 µM
[32] = second compound 10 µM, first compound 0.1 µM
[33] = second compound 10 µM, first compound 0.316 µM
[34] = second compound 10 µM, first compound 1 µM
[35] = second compound 10 µM, first compound 3.16 µM
[36] = second compound 10 µM, first compound 10 µM
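Further: spheroids exposed to the agents for one week.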
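Wherever viability, T/C is given: 100% = DMSO vehicle control wells.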

Molecule `CC1COCCN1c1cc(C2(O)CC3CCC(C2)O3)c2cnn(-c3ccn[nH]3)c2n1` (stereo unspecified) + COC1C(OC(N)=O)C(O)C(Oc2ccc3c(O)c(NC(=O)c4ccc(O)c(CC=C(C)C)c4)c(=O)oc3c2C)OC1(C)C has an IC50 (second compound 0.0316 µM) of 337 nM, an IC50 (second compound 0.1 µM) of 371 nM and an IC50 (second compound 0.316 µM) of 361 nM. The IC50 (second compound 1 µM) was 383 nM, the IC50 (second compound 3.16 µM) was 361 nM and the IC50 (second compound 10 µM) was 393 nM. The viability, T/C [1] was 101%, the viability, T/C [2] was 80.6% and the viability, T/C [3] was 54.1%. The viability, T/C [4] was 23.1%, the viability, T/C [5] was 8.69% and the viability, T/C [6] was 11.8%. It also gave a viability, T/C [7] of 107%, a viability, T/C [8] of 68.5% and a viability, T/C [9] of 66.4%. The viability, T/C [10] was 26.7%, the viability, T/C [11] was 10.4% and the viability, T/C [12] was 10.7%. The viability, T/C [13] was 96%, the viability, T/C [14] was 89.6% and the viability, T/C [15] was 53.3%. The viability, T/C [16] was 20.5%, the viability, T/C [17] was 9.11% and the viability, T/C [18] was 10.8%. For the same molecule, the viability, T/C [19] was 99.5%, the viability, T/C [20] was 93.7% and the viability, T/C [21] was 55.1%. The viability, T/C [22] was 21.1%, the viability, T/C [23] was 8.57% and the viability, T/C [24] was 11.2%. The viability, T/C [25] was 100%, the viability, T/C [26] was 84.9% and the viability, T/C [27] was 54.1%. It also gave a viability, T/C [28] of 23.2%, a viability, T/C [29] of 10.7% and a viability, T/C [30] of 9.88%. For the same molecule, the viability, T/C [31] was 93.8%, the viability, T/C [32] was 76.1% and the viability, T/C [33] was 60.5%. The viability, T/C [34] was 17.4%, the viability, T/C [35] was 10.4% and the viability, T/C [36] was 10.3%.

With `O=C(Nc1ccc(O)c(NS(=O)(=O)c2ccc(F)cc2)c1)c1ccc(-c2ccccc2)cc1` + COC1C(OC(N)=O)C(O)C(Oc2ccc3c(O)c(NC(=O)c4ccc(O)c(CC=C(C)C)c4)c(=O)oc3c2C)OC1(C)C the IC50 (second compound 0.0316 µM) was greater than 10000 nM, the IC50 (second compound 0.1 µM) was greater than 10000 nM and the IC50 (second compound 0.316 µM) was greater than 10000 nM. For the same molecule, the IC50 (second compound 1 µM) was greater than 10000 nM, the IC50 (second compound 3.16 µM) was greater than 10000 nM and the IC50 (second compound 10 µM) was greater than 10000 nM. For the same molecule, the viability, T/C [1] was 107%, the viability, T/C [2] was 91.7% and the viability, T/C [3] was 95.1%. The viability, T/C [4] was 98.3%, the viability, T/C [5] was 99.8% and the viability, T/C [6] was 95.6%. It also gave a viability, T/C [7] of 116%, a viability, T/C [8] of 97.1% and a viability, T/C [9] of 101%. The viability, T/C [10] was 99.3%, the viability, T/C [11] was 84% and the viability, T/C [12] was 102%. For the same molecule, the viability, T/C [13] was 104%, the viability, T/C [14] was 100% and the viability, T/C [15] was 97.5%. For the same molecule, the viability, T/C [16] was 101%, the viability, T/C [17] was 93.3% and the viability, T/C [18] was 101%. The viability, T/C [19] was 104%, the viability, T/C [20] was 97.4% and the viability, T/C [21] was 97.6%. The viability, T/C [22] was 96.4%, the viability, T/C [23] was 101% and the viability, T/C [24] was 94.7%. It also gave a viability, T/C [25] of 93.9%, a viability, T/C [26] of 92.2% and a viability, T/C [27] of 93.7%. For the same molecule, the viability, T/C [28] was 90.8%, the viability, T/C [29] was 107% and the viability, T/C [30] was 94.2%. The viability, T/C [31] was 86.2%, the viability, T/C [32] was 81.1% and the viability, T/C [33] was 97.8%. The viability, T/C [34] was 73.7%, the viability, T/C [35] was 89.3% and the viability, T/C [36] was 96.5%.

`CC(=O)O[C@H]1C(=O)[C@@]2(C)[C@H]([C@H](OC(=O)c3ccccc3)[C@]3(O)C[C@H](OC(=O)[C@H](O)[C@@H](NC(=O)c4ccccc4)c4ccccc4)C(C)=C1C3(C)C)[C@]1(OC(C)=O)CO[C@@H]1C[C@@H]2O` + Cc1cccc(N(C)C(=O)C2C(O)CCN2c2nc(C)cc(C(F)(F)F)c2C#N)c1 gave an IC50 (second compound 0.0316 µM) greater than 3000 nM, an IC50 (second compound 0.1 µM) greater than 3000 nM and an IC50 (second compound 0.316 µM) greater than 3000 nM. The IC50 (second compound 1 µM) was greater than 3000 nM, the IC50 (second compound 3.16 µM) was greater than 3000 nM and the IC50 (second compound 10 µM) was greater than 3000 nM. For the same molecule, the viability, T/C (second compound 0.0316 µM, first compound 0.00949 µM) was 100%, the viability, T/C (second compound 0.0316 µM, first compound 0.03 µM) was 102% and the viability, T/C (second compound 0.0316 µM, first compound 0.0949 µM) was 101%. For the same molecule, the viability, T/C (second compound 0.0316 µM, first compound 0.3 µM) was 103%, the viability, T/C (second compound 0.0316 µM, first compound 0.949 µM) was 98.5% and the viability, T/C (second compound 0.0316 µM, first compound 3 µM) was 76.6%. It also gave a viability, T/C (second compound 0.1 µM, first compound 0.00949 µM) of 105%, a viability, T/C (second compound 0.1 µM, first compound 0.03 µM) of 107% and a viability, T/C (second compound 0.1 µM, first compound 0.0949 µM) of 99.4%. For the same molecule, the viability, T/C (second compound 0.1 µM, first compound 0.3 µM) was 99.8%, the viability, T/C (second compound 0.1 µM, first compound 0.949 µM) was 98.9% and the viability, T/C (second compound 0.1 µM, first compound 3 µM) was 66.9%. For the same molecule, the viability, T/C (second compound 0.316 µM, first compound 0.00949 µM) was 104%, the viability, T/C (second compound 0.316 µM, first compound 0.03 µM) was 103% and the viability, T/C (second compound 0.316 µM, first compound 0.0949 µM) was 99.9%. For the same molecule, the viability, T/C (second compound 0.316 µM, first compound 0.3 µM) was 103%, the viability, T/C (second compound 0.316 µM, first compound 0.949 µM) was 95.5% and the viability, T/C (second compound 0.316 µM, first compound 3 µM) was 73.3%. For the same molecule, the viability, T/C (second compound 1 µM, first compound 0.00949 µM) was 104%, the viability, T/C (second compound 1 µM, first compound 0.03 µM) was 98.2% and the viability, T/C (second compound 1 µM, first compound 0.0949 µM) was 99%. The viability, T/C (second compound 1 µM, first compound 0.3 µM) was 101%, the viability, T/C (second compound 1 µM, first compound 0.949 µM) was 91.8% and the viability, T/C (second compound 1 µM, first compound 3 µM) was 64.8%. It also gave a viability, T/C (second compound 3.16 µM, first compound 0.00949 µM) of 99.8%, a viability, T/C (second compound 3.16 µM, first compound 0.03 µM) of 105% and a viability, T/C (second compound 3.16 µM, first compound 0.0949 µM) of 100%. For the same molecule, the viability, T/C (second compound 3.16 µM, first compound 0.3 µM) was 95%, the viability, T/C (second compound 3.16 µM, first compound 0.949 µM) was 70.5% and the viability, T/C (second compound 3.16 µM, first compound 3 µM) was 63.5%. The viability, T/C (second compound 10 µM, first compound 0.00949 µM) was 97.3%, the viability, T/C (second compound 10 µM, first compound 0.03 µM) was 99.3% and the viability, T/C (second compound 10 µM, first compound 0.0949 µM) was 75.5%. For the same molecule, the viability, T/C (second compound 10 µM, first compound 0.3 µM) was 66.7%, the viability, T/C (second compound 10 µM, first compound 0.949 µM) was 63.3% and the viability, T/C (second compound 10 µM, first compound 3 µM) was 48.7%.
